# Test results reported in US20180318291A1, “USE OF AMINOTHIAZOLE MYD88 SPECIFIC INHIBITOR TJM2010-5” (WUHAN INNAMUNE PHARMACEUTICAL INC. LTD., priority 2015, published 2018).
# Tests used:
# [1] = system: Balb/c mice; assay: AOM/DSS chronic colitis and colitis-associated colorectal cancer (CAC) model; type: in vivo
# Procedure: Construct the chronic colitis and colitis-associated colorectal cancer (CAC) model: apply intraperitoneal injection of 10 mg/Kg azoxymethane (AOM) (Sigma-Aldrich Chemical) to 40Balb/c mice, and start to execute three cycles of feeding of drinking water containing 2.5% of dextran sodium sulfate (DSS) (MP Biomedicals) 7 days later, and each cycle consists one week of feeding DSS water and two weeks of feeding common fresh water. Then, observe them in the following 10 weeks. […] 100% of mice in this group have colorectal cancer.
# TJM2010-5 treatment group: Provide intragastric administration of TJM2010-5 of 50 mg/kg to 20 Balb/c mice in two days before providing the treatment mentioned above, and observe them in ten weeks.
# Mechanism study: Take the specimen of serum, colon, and spleen etc. from 4 mice in each group 2 weeks and 7 weeks later to detect the infiltration of IRAK4 and inflammatory cytokines, macrophage and Gr-1^highCD11b^high MDSC, and the proportion of LPMCs (lamina propria mononuclearcells) F4/80^+CD11b^+ macrophage etc.
# The experimental procedure is the same with that of the experiment on effect of TJM2010-5 in preventing and treating colitis and colorectal cancer: Apply intragastric administration of TJM2010-1, TJM2010-2, TJM2010-3, TJM2010-4, TJM2010-5 of 50 mg/kg to 20 Balb/c mice in each group of totally 6 groups, and then, observe them in the following 10 weeks. The mice with colitis and colorectal cancer in the group corresponding to TJM2010-5 and TJM2010-1, TJM2010-2, TJM2010-3, TJM2010-4, TJM2010-5 accounts 0%, 71.52%, 42.28%, 60.19%, 81.34% respectively; 2. TJM2010-5 can 100% prevent and cure chronic colitis and prevent the colorectal cancer incurred by chronic colitis. […] Other aminothiazole compound has no or little such curative effect.
# [2] = system: lymphocyte subpopulation in receptor spleen; assay: lymphocyte subpopulation in receptor spleen by flow cytometry; type: in vivo, mice; conditions: FIG. 5
# Excerpt: In vitro experiment: conduct analysis on lymphocyte subpopulation in receptor spleen receiving stimulation of antigen (homogenic, allogeneic), and flow cytometer detection on CD4+CD25+Foxp3+T cell ratio in receptor receiving TJM2010-5 treatment.
# 1. Take the receptor spleen of different groups (homogenic, allogenic antigenic stimulation), and grind them to separate lymphocyte;
# 2. Add the IFN-γ labeled by flow antibody APC and IL-17 labeled by APC, CD25 labeled by APC and Foxp3 labeled by PE.
# 3. Analyze the lymphocyte subpopulation in receptor spleen of various groups, and the CD4+CD25+Foxp3+T cell ratio in receptor receiving TJM2010-5 treatment with flow cytometry.
# [3] = system: C57bl/6 mice; assay: BLM (bleomycin) pulmonary inflammation model; type: in vivo
# Procedure: 1. Animal grouping: C57bl/6(B6) NaCl (200 μl nasal drip) group, C57bl/6 (B6) BLM group and TJM2010-5BLM group (provide intraperitoneal injection of TJM2010-5 dissolved in 0.5% CMC of 150 mg/kg/d on day 0-3, 5, 7, 9, 11, 13, 15).
# 2. Construct pulmonary inflammation model with BLM (bleomycin) nasal drips: conduct airway anesthesia with 40 μl of ketaminexylazine, and administrate BLM sulfate by nasal dripping (300 μg or 15 mg/kg).
# 3. Collect cell and cytokines with bronchoalveolar lavage fluid (BAL): Cut open the trachea and insert the plastic sleeve; then lavage with 0.3 ml of PBS at 37° C., and withdraw the lavage fluid (the withdrawn fluid is more than 95%), and repeat the process for 10 times. The lavage fluid consists of two parts: one part is used for detection of cytokins (600 g, conduct centrifugation for 10 min, collect and store the supernatant at −80° C. for detection); the other part is used for cell counting (0.4 ml, including substratum, suspension), count at 4° C.
# 4. Detect cells and factors in tissue with pulmonary homogenate: After BAL, take and grind the whole lung, and conduct centrifugation to take supernatant, then, store it at −80 C° for detection of MPO.
# 5. Conduct activity detection of pulmonary MPO: Completely lavage the lung with saline passing through right heart, and take pulmonary tissue homogenate, then conduct centrifugation to take supernatant. After that, suspend and precipitate it with 1 ml of PBS (including 0.5% of HTAB, 5 mM of EDTA). Conduct centrifugation, add 50 μl of supernatant into tube (200 μl of PBS-HTAB-EDTA, 2 ml of HBSS, 100 μl of o-dianisidine dihydrochloride (1.25 mg/ml), 100 μl of H2O2 0.05%), and put it into vortex water tank at 37° C. for 15 min. Then, stop the reaction with 100 μl of NaN3 1%, and detect the MPO absorption value with 460 nm.
# 6. Conduct cell counting: Dye with MG-1L for 4 min, and dye with 95% of GS-500 for 8 min. Then, make smear to count cells.
# 7. Conduct factor detection: detect the level of IL-6 with ELISA.
# [4] = system: RAW264.7 cell; assay: CD80 expression on RAW264.7 (macrophage) cells by flow cytometry; type: cell-based
# Procedure: TJM2010-5 can inhibit the up-regulation of RAW264.7 cell on costimulatory molecules CD80 caused by TLR stimulant (LPS, CpG), which means that TJM2010-5 can effectively block the TLR signal pathway, thus to inhibit the cells' immune reaction.
# Raw264.7: Place the cells into a 48-pore plate, the number of cells is 9×10^5/pore, and 1 ml of medium system is added to each pore. Firstly, add TJM2010-5 of different concentration gradients to pre-incubate the cells for 2 h, then, add the CPG to get the final concentration of 40 ug/ml, and then incubate them in CO2 incubator at 37° C. for one night (12 h). Add the flow antibody FITC to label anti-CD80, CD86, and conduct detection with machine;
# Add the flow antibody FITC to label anti-CD80, CD86, and conduct detection with machine.
structure (smiles),measurement,setting,value
"O=C(CCN1CCN(Cc2ccccc2)CC1)Nc1nc(-c2ccccc2)cs1 [TJM2010-5, 3-(4-benzylpiperazin-1-yl)-N-(4-phenylthiazol-2-yl) propanamide]",colitis finding,[1]; 50 mg/kg intragastric,No apparent colitis
same,mice with colitis and colorectal cancer,"[1]; 50 mg/kg intragastric, 20 Balb/c mice per group, observed 10 weeks",0%
same,weights vs untreated group,"[1]; 50 mg/kg intragastric, FIG. 12A",obviously higher than that of untreated group
same,survival rate vs control group,"[1]; 50 mg/kg intragastric, FIG. 12B",obviously higher than that of control group
same,mice having colitis and colorectal cancer,[1]; FIG. 12C,no mice
same,activation of IRAK4,[1]; FIG. 13A,inhibit
same,p-IRAK4,[1]; FIG. 13A,reduce
same,activation of NF-κB p65,[1]; FIG. 13B,inhibit
same,generation of G-CSF vs control group,[1]; FIG. 13C,obviously lower than those of control group
same,generation of IL-6 vs control group,[1]; FIG. 13C,obviously lower than those of control group
same,generation of MIP-1β vs control group,[1]; FIG. 13C,obviously lower than those of control group
same,generation of TGF-β1 vs control group,[1]; FIG. 13C,obviously lower than those of control group
same,generation of TNF-α vs control group,[1]; FIG. 13C,obviously lower than those of control group
same,level of IL-6 mRNA vs control group,[1]; FIG. 13D,obviously lower than those of control group
same,level of TGF-β1 mRNA vs control group,[1]; FIG. 13D,obviously lower than those of control group
same,infiltration of macrophage,[1]; FIG. 14,reduce
same,F4/80+CD11b+ tumor-associated macrophage in LPMCs,[1]; FIG. 14B,reduces
same,infiltration of Gr-1highCD11bhigh MDSC (myeloid suppressor cells),[1]; FIG. 14C,reduce
same,expression of IL-6,[1]; FIG. 14D,reduce
same,prevention and cure of chronic colitis and prevention of colorectal cancer,[1]; intragastric,100%
same,IFN-γ vs CMC control group,[2]; receptor spleen lymphocytes,significantly lower than that of CMC control group
same,IL-17 vs CMC control group,[2]; receptor spleen lymphocytes,significantly lower than that of CMC control group
same,CD4+CD25+Foxp3+T cell ratio in receptor,[2]; receptor spleen,up-regulated significantly
same,recruitment of bronchialveolar neutrophile granulocyte,"[3]; 150 mg/kg/d intraperitoneal, FIG. 10b",reduces significantly
same,level of IL-6 in lung tissue,"[3]; at 24 h, FIG. 11b",reduces
same,total cell numbers in bronchial alveolar vs WT mice,"[3]; day 1, 7, 11, FIG. 10a",statistical differences
same,MPO factor in lung tissue,"[3]; detection on day 7, FIG. 11a",reduced
same,"up-regulation of costimulatory molecule CD80 caused by TLR stimulant (LPS, CpG)",[4]; RAW264.7 cell,inhibit
same,expression of CD80 on macrophage surface,"[4]; Raw264.7, 2 h pre-incubation, CPG 40 ug/ml, 12 h, FIG. 3d",concentration-dependent inhibition
